The NIST ThermoML archive (doi:10.1016/j.jct.2018.10.006)

Experiments:
[1] = for molar entropy / mass density: 101.33 kPa; for mass density: X-ray diffraction
[2] = Molar enthalpy of transition or fusion; conditions: Crystal 2; DSC

O=P([O-])([O-])[O-].[Cs+].[Ni+2] [cesium nickel monophosphate]
[1]
Conditions | mass density [kg/m3] | molar entropy [J/K/mol]
5 K, Crystal 2, Small (less than 1 g) adiabatic calorimetry | – | 0.4664
6 K, Crystal 2, Small (less than 1 g) adiabatic calorimetry | – | 0.6618
7 K, Crystal 2, Small (less than 1 g) adiabatic calorimetry | – | 0.8896
8 K, Crystal 2, Small (less than 1 g) adiabatic calorimetry | – | 1.147
9 K, Crystal 2, Small (less than 1 g) adiabatic calorimetry | – | 1.438
10 K, Crystal 2, Small (less than 1 g) adiabatic calorimetry | – | 1.763
15 K, Crystal 2, Small (less than 1 g) adiabatic calorimetry | – | 3.941
20 K, Crystal 2, Small (less than 1 g) adiabatic calorimetry | – | 6.944
25 K, Crystal 2, Small (less than 1 g) adiabatic calorimetry | – | 10.43
30 K, Crystal 2, Small (less than 1 g) adiabatic calorimetry | – | 14.35
35 K, Crystal 2, Small (less than 1 g) adiabatic calorimetry | – | 18.52
40 K, Crystal 2, Small (less than 1 g) adiabatic calorimetry | – | 22.78
45 K, Crystal 2, Small (less than 1 g) adiabatic calorimetry | – | 27.1
50 K, Crystal 2, Small (less than 1 g) adiabatic calorimetry | – | 31.46
60 K, Crystal 2, Small (less than 1 g) adiabatic calorimetry | – | 40.28
70 K, Crystal 2, Small (less than 1 g) adiabatic calorimetry | – | 49.01
80 K, Crystal 2, Small (less than 1 g) adiabatic calorimetry | – | 57.49
90 K, Crystal 2, Small (less than 1 g) adiabatic calorimetry | – | 65.63
100 K, Crystal 2, Small (less than 1 g) adiabatic calorimetry | – | 73.47
110 K, Crystal 2, Small (less than 1 g) adiabatic calorimetry | – | 81.12
120 K, Crystal 2, Small (less than 1 g) adiabatic calorimetry | – | 88.55
130 K, Crystal 2, Small (less than 1 g) adiabatic calorimetry | – | 95.7
140 K, Crystal 2, Small (less than 1 g) adiabatic calorimetry | – | 102.6
150 K, Crystal 2, Small (less than 1 g) adiabatic calorimetry | – | 109.34
160 K, Crystal 2, Small (less than 1 g) adiabatic calorimetry | – | 115.9
170 K, Crystal 2, Small (less than 1 g) adiabatic calorimetry | – | 122.31
180 K, Crystal 2, Small (less than 1 g) adiabatic calorimetry | – | 128.54
190 K, Crystal 2, Small (less than 1 g) adiabatic calorimetry | – | 134.69
200 K, Crystal 2, Small (less than 1 g) adiabatic calorimetry | – | 140.68
210 K, Crystal 2, Small (less than 1 g) adiabatic calorimetry | – | 146.58
220 K, Crystal 2, Small (less than 1 g) adiabatic calorimetry | – | 152.32
230 K, Crystal 2, Small (less than 1 g) adiabatic calorimetry | – | 157.89
240 K, Crystal 2, Small (less than 1 g) adiabatic calorimetry | – | 163.38
250 K, Crystal 2, Small (less than 1 g) adiabatic calorimetry | – | 168.7
260 K, Crystal 2, Small (less than 1 g) adiabatic calorimetry | – | 173.94
270 K, Crystal 2, Small (less than 1 g) adiabatic calorimetry | – | 179.09
273.15 K, Crystal 2, Small (less than 1 g) adiabatic calorimetry | – | 180.67
280 K, Crystal 2, Small (less than 1 g) adiabatic calorimetry | – | 184.17
290 K, Crystal 2, Small (less than 1 g) adiabatic calorimetry | – | 189.15
298 K, Crystal 2 | 4218.3 | –
298.15 K, Crystal 2, Small (less than 1 g) adiabatic calorimetry | – | 193.23
300 K, Crystal 2, Small (less than 1 g) adiabatic calorimetry | – | 194.14
310 K, Crystal 2, Small (less than 1 g) adiabatic calorimetry | – | 199.13
320 K, Crystal 2, Small (less than 1 g) adiabatic calorimetry | – | 204.04
330 K, Crystal 2, Small (less than 1 g) adiabatic calorimetry | – | 208.86
340 K, Crystal 2, Small (less than 1 g) adiabatic calorimetry | – | 213.68
350 K, Crystal 2, Small (less than 1 g) adiabatic calorimetry | – | 218.42
360 K, Crystal 2, Small (less than 1 g) adiabatic calorimetry | – | 223.08
370 K, Crystal 2, Small (less than 1 g) adiabatic calorimetry | – | 227.82
380 K, Crystal 2, Small (less than 1 g) adiabatic calorimetry | – | 232.47
382.8 K, Crystal 1, DSC | – | 237.46
382.8 K, Crystal 2, Small (less than 1 g) adiabatic calorimetry | – | 233.72
390 K, Crystal 1, DSC | – | 240.7
400 K, Crystal 1, DSC | – | 245.19
410 K, Crystal 1, DSC | – | 249.52
420 K, Crystal 1, DSC | – | 253.76
430 K, Crystal 1, DSC | – | 257.83
440 K, Crystal 1, DSC | – | 261.82
450 K, Crystal 1, DSC | – | 265.73
460 K, Crystal 1, DSC | – | 269.64
470 K, Crystal 1, DSC | – | 273.38
473 K, Crystal 1 | 4124 | –
480 K, Crystal 1, DSC | – | 277.04
490 K, Crystal 1, DSC | – | 280.7
500 K, Crystal 1, DSC | – | 284.27
510 K, Crystal 1, DSC | – | 287.76
520 K, Crystal 1, DSC | – | 291.17
530 K, Crystal 1, DSC | – | 294.58
540 K, Crystal 1, DSC | – | 297.91
550 K, Crystal 1, DSC | – | 301.23
560 K, Crystal 1, DSC | – | 304.48
570 K, Crystal 1, DSC | – | 307.64
573 K, Crystal 1 | 4090 | –
580 K, Crystal 1, DSC | – | 310.79
590 K, Crystal 1, DSC | – | 313.87
600 K, Crystal 1, DSC | – | 316.86
610 K, Crystal 1, DSC | – | 319.86
620 K, Crystal 1, DSC | – | 322.85
630 K, Crystal 1, DSC | – | 325.76
640 K, Crystal 1, DSC | – | 328.67
650 K, Crystal 1, DSC | – | 331.58
673 K, Crystal 1 | 4080 | –
773 K, Crystal 1 | 4040 | –
873 K, Crystal 1 | 4030 | –
973 K, Crystal 1 | 4000 | –
1073 K, Crystal 1 | 3980 | –

Conditions | Triple point temperature [K]
[1], Crystal 2, DSC | 382.8

Conditions | Molar enthalpy of transition or fusion [kcal/mol]
[2] | 0.336
